Where two headings read alike, the source gives them in different places.

One data set has as its system non-dormant oat VAO-22. The data set can be described thus: CaCl2 in anaerobic steep water, avenanthramide accumulation during false malting of VAO-22. In kind it is in vivo. As to conditions: for All others / Avenanth A / Avenanth B / Avenanth C / Total Avenanth: four days 30° C., avenanthramide A equivalents. The procedure: (§1) In a third method, samples (10 μl) were injected into a C18 reversed-phase column (Zorbax Stable™ bond C18, 3.5 μm, 4.6 mm×150 mm) maintained at 30° C. Solvents for HPLC were A: methanol, B: water and C: 0.5M formic acid. The solvent gradient (vol. %) consisted of 45A:45B:10C, linearly increasing to 55A:35B:10C over 24 min, and linearly increasing to 70A:20B:10C over 9 min, then reaching 95A:5C over 3 min and holding for 3 min. The solvent gradient was brought back to original conditions over 3 min, allowed equilibrating for 3 min.
(§2) Individual avenanthramides were quantified by determining the peak areas at 330 nm relative to an external authentic avenanthramide A standard and expressed as avenanthramide A weight equivalents. Total avenanthramides were calculated by summing all the individual avenanthramide quantities calculated as avenanthramide A weight equivalents and expressed as parts per million (ppm) avenanthramide A equivalents on a dry weight basis.
A 1,300 g sample of VAO-22 hulless, hairless, non-dormant oat breeder's seed was used (84% germination rate after four days). The seeds were then heat treated as in Example 5. A 25 g sample was used as a control representing the un-malted seeds and stored at −20° C. until analyzed. The rest of the heat treated material was anaerobically steeped at 35° C. in either 1.0% or 2.0% Ca Cl2.(H2O)2 for 18 hours and air drying in a seed dryer for about four hours. The seeds were then surface sterilized as above and ‘false malted” in the dark at 30° C. in a controlled temperature oven for four days using Petri dishes (150×50 mm). After malting the seeds were removed, dried at room temperature (forced air) for four hours then brought to constant weight by drying at 37° C. for ˜40 hours and stored at −20° C. until analyzed for avenanthramide content by HPLC using the third method described above (μg avenanthramide A equivalents/g dry wt=ppm avenanthramide A), and compared to un-malted material.

The next data set concerns dormant oat VAO-48. The data set can be described thus: CaCl2 in anaerobic steep water, avenanthramide accumulation during false malting of VAO-48. The class given is in vivo. As to conditions: for All others / Avenanth A / Avenanth B / Avenanth C / Total Avenanth: four days 30° C., avenanthramide A equivalents. The procedure: as §1, §2
25 g samples of the hulless, hairless, dormant oat VAO-48 was anaerobically steeped in either water or various concentrations of USP-grade CaCl2.(H2O)2 solutions at 35° C. After steeping for 18 hours and air drying in a seed dryer for about four hours, the seeds were surface sterilized as above then ‘false malted” using Petri dishes (150×50 mm) in the dark at 30° C. in a controlled temperature oven for four days. The germination rate in all cases was less than 1% after four days. After malting the seeds were removed, dried at room temperature (forced air) for four hours then brought to constant weight by drying at 37° C. for ˜40 hours and stored at −20° C. until analyzed for avenanthramide content by the third method described above (μg avenanthramide A equivalents/g dry wt=ppm avenanthramide A), and compared to un-malted material.

Data set [1] concerns smooth muscle cells. As to conditions: about 40 ppm; human; cited from earlier work.
In data set [2] the test system is colonic cancer cell lines. Conditions: about 20 to 50 ppm; cited from earlier work.
Another data set deals with normal cell lines. Conditions: about 20 to 50 ppm; cited from earlier work.
For data set [3], the system named is smooth muscle cells. Conditions: about 40 ppm; rat; cited from earlier work.
The test system of another data set is heat treated oats. The data set can be described thus: germination of heat treated oats incubated with gibberellin. The class given is in vivo, oats (VAO-2). Conditions: 100 ppm gibberellin, 5 days; two-phase dry heated oats.

Regarding `O.O.[Ca+2].[Cl-].[Cl-]` [CaCl2, CaCl2.(H2O)2], in the data set with non-dormant oat VAO-22 (1% CaCl2), the “avenanthramide B fold over initial value” is 23.4 fold, the “avenanthramide B increase over initial value” is given as 2,240%, the “avenanthramide C fold over initial” value is given as 28.4 fold and the “avenanthramide C increase over initial” value was 2,735%. In the data set with non-dormant oat VAO-22 (1% CaCl2), the “total avenanthramide fold over initial” value is 24.1 fold and the “total avenanthramide levels relative to initial” value is reported as 2,307%. Further, in the data set with non-dormant oat VAO-22 (1.0% CaCl2 in steeping water), the All others is 360.1 ± 2.4 ppm, the “Avenanth A” value is recorded as 27.0 ± 0.22 ppm, the “Avenanth B” value was 79.7 ± 0.26 ppm and the “Avenanth C” value is 65.2 ± 0.26 ppm. Further, the “Total Avenanth” value in the data set on non-dormant oat VAO-22 (1.0% CaCl2 in steeping water) turned out to be 532.0 ± 3.16 ppm. For the same compound, in the data set with non-dormant oat VAO-22 (2% CaCl2), the “avenanthramide B fold over initial” value is 30.3 fold, the “avenanthramide B increase over initial value” is on record as 2,930%, the “avenanthramide C fold over initial” value was determined as 43.5 fold and the “avenanthramide C increase over initial” value is 4,252%. Further, in the data set with non-dormant oat VAO-22 (2% CaCl2), the “total avenanthramide fold over initial” value came to 31.9 fold and the “total avenanthramide levels relative to initial” value is on record as 3,190%. In the data set on non-dormant oat VAO-22 (2.0% CaCl2 in steeping water), the All others is reported as 461.7 ± 8.8 ppm, the “Avenanth A” value was found to be 46.7 ± 0.08 ppm, the “Avenanth B” value was 103.0 ± 0.06 ppm and the “Avenanth C” value worked out at 100.1 ± 0.38 ppm. Besides, in the data set with non-dormant oat VAO-22 (2.0% CaCl2 in steeping water), the “Total Avenanth” value is 711.4 ± 9.32 ppm. Further, in the data set on dormant oat VAO-48 (0.05% CaCl2 in steeping water), the All others turned out to be 287.3 ± 30.9 ppm, the “Avenanth A” value amounted to 37.7 ± 5.6 ppm, the “Avenanth B” value was determined as 122.0 ± 14.8 ppm and the “Avenanth C” value turned out to be 81.5 ± 9.4 ppm. Moreover, the “Total Avenanth” value with dormant oat VAO-48 (0.05% CaCl2 in steeping water) worked out at 528.4 ± 30.9 ppm. In addition, in the data set on dormant oat VAO-48 (0.10% CaCl2 in steeping water), the All others was determined as 251.4 ± 10.4 ppm, the “Avenanth A” value is 27.2 ± 11.4 ppm, the “Avenanth B” value worked out at 113.4 ± 5.8 ppm and the “Avenanth C” value is recorded as 75.7 ± 4.6 ppm. For the same compound, in the data set on dormant oat VAO-48 (0.10% CaCl2 in steeping water), the “Total Avenanth” value was 467.7 ± 32.1 ppm. Further, in the data set on dormant oat VAO-48 (0.50% CaCl2 in steeping water), the All others stood at 400.1 ± 0.3 ppm, the “Avenanth A” value is listed as 59.9 ± 1.1 ppm, the “Avenanth B” value was 155.3 ± 2.3 ppm and the “Avenanth C” value came out at 126.4 ± 2.8 ppm. In the data set on dormant oat VAO-48 (0.50% CaCl2 in steeping water), the “Total Avenanth” value came out at 741.7 ± 6.5 ppm. In addition, the “overall increase of avenanthramide concentration over un-malted seeds” value in the data set with dormant oat VAO-48 (1% Ca+2) is given as “about 23.6 fold”. In addition, in the data set with dormant oat VAO-48 (1.0% CaCl2 in steeping water), the All others stood at 401.1 ± 15.4 ppm, the “Avenanth A” value worked out at 68.7 ± 3.3 ppm, the “Avenanth B” value is given as 149.0 ± 8.2 ppm and the “Avenanth C” value was determined as 138.1 ± 4.0 ppm. Besides, in the data set on dormant oat VAO-48 (1.0% CaCl2 in steeping water), the “Total Avenanth” value was found to be 757.0 ± 30.9 ppm. The “increase of avenanthramide concentration over steeping with no added Ca+2” value in the data set on dormant oat VAO-48 (1% added Ca+2) is “approximately 1.7 fold”.
On to `O=C(/C=C/c1ccc(O)c(O)c1)Nc1ccc(O)cc1C(=O)O` [avenanthramide C], for which, in the data set on smooth muscle cells [1], the nitric oxide production result was “inhibit” and the “proliferation of smooth muscle cells” value was “inhibit the proliferation”. Besides, in data set [2], the anti-inflammatory activity result is “anti-inflammatory” and the anti-proliferative activity entry is recorded as “anti-proliferative activity”. The “effect on normal cell lines” value in the data set with normal cell lines is given as “no effect”. In the data set with smooth muscle cells [3], the nitric oxide production entry was “inhibit” and the “proliferation of smooth muscle cells” value was “inhibit the proliferation”.
As to gibberellin, in the data set with heat treated oats, the germination result was “almost complete restoration of germination”.

Source of the values: patent US10334869B2, “Method for increasing concentration of avenanthramides in oats” (HER MAJESTY THE QUEEN IN RIGHT OF CANADA, AS REPRESENTED BY …, priority 2009, dated 2019).
